US9512139B2, “Conformationally constrained, fully synthetic macrocyclic compounds” (POLYPHOR AG, priority 2009, dated 2016)
Each block holds one compound with its values, some of them ahead of it.

Tests used:
[1] = biological target: T1, Purinoreceptor P2Y1 (Homo sapiens, UniProt P47900); assay: Ca2+ assay (FLIPR) for the GPCR purinoreceptor P2Y1, agonist and antagonist mode; type: cell-based; details: P2Y1 receptor
T1 construct: host or cells: Ca2+ optimized hematopoietic cell lines (rat)
Description: Biological and Pharmacological Methods 1. Ca^2+ Assays for the GPCRs Motilin Receptor, Prostaglandin F (FP) Receptor, 5-hydroxytryptamine 2B (5-HT2B) Receptor, and Purinoreceptor P2Y1
Assays were performed using on a FLIPR^TETRA fluorometric imaging plate reader (Molecular Devices) with ScreenWorks Version 2 (Molecular Devices) as device operating and data analysis software.
Dose dependent agonist and antagonist activities were determined. Percentage activation and percentage inhibition values were determined.
Percentage activation was determined upon initial addition of the sample compounds followed by 10 minutes incubation at 25° C. Following compound incubation, reference agonists were added at EC80 to determine percentage inhibition.
Reference agonists were purchased from reputable commercial vendors and prepared according to each ligand's specifications. All handling of ligands were done to ensure proper control throughout the experiments.
Example compounds were weighed on a Microbalance (Mettler MX5) and dissolved in 100% DMSO to a final concentration of 2.5 mM and subsequently diluted into the assay buffer.
The Assay buffer was a supplemented HBSS (Hank's Balanced Salt Solution). HBSS was supplemented with 20 mM HEPES (4-(2-hydroxyethyl)-piperazin-1-ethansulfonic acid) and 2.5 mM Probenecid (Sigma P8761).
GPCR assays were performed using Ca^2+ optimized hematopoietic cell lines (rat) with cultures never exceeding 90% confluency. Cells were harvested and seeded (from cultures at less than 90% confluency) at 50000 cells/well for a 96-well plate (12500 cells/well for 384). After seeding, the assay plates were incubated for forty-five (45) minutes at room temperature. After room temperature incubation, the assay plates were incubated at 37° C. 5% CO2 for 24 hours prior to assaying.
All GPCR assays were performed using Fluo-8 Ca^2+ dye. Ca^2+ dye was prepared at 1× dye concentration in GPCR assay buffer. After 24 hours of incubation, cells were washed with GPCR assay buffer, and then Ca^2+-dye (100 μL/well) was added.
The plates were incubated for 90 minutes at 30° C. 5% CO2 prior to FLIPR assay.
Compound plates were prepared to add 50 μL/well during the agonist assay mode. During the FLIPR assay, 50 μL/well from the compound plate was diluted 3-fold into the existing 100 μL/well from the dye loading step. Therefore all compounds were prepared as 3× the final concentration desired in the assay.
After completion of the first single addition assay run, assay plate was removed from the FLIPR Tetra and placed at 25° C. for seven (7) minutes before antagonist assay.
Using the EC80 values determined during the agonist assay, all pre-incubated sample compound and reference antagonist (if applicable) wells were stimulated at the EC80 of the reference agonist. As reference ligands for the first three assays their obvious natural ligands motilin, prostaglandin F2α, and serotonin (5-HT, 5-Hydroxytryptamine) were used; and for the P2Y1 assay 2MeSATP (2-methyl-thio-adeno-sine 5′-triphosphate, i.e. (2R,3S,4R)-5-(6-amino-2-methylsulfanyl-purin-9-yl)-3,4-dihydroxy-tetrahydrofuran-2-yl]methyl (hydroxy-phosphonooxy-phosphoryl)hydrogen phosphate) was applied.
After the addition of the reference agonist fluorescence was monitored for 180 sec using FLIPR Tetra.
Data Analysis and Results:
From the FLIPR data, with negative control correction enabled, the maximum statistic for each well was exported and percentage activation relative to Emax control was calculated.

[2] = in vitro; type: in vitro ADME, human; details: human, plasma; for Plasma Stability 240 min hum [% remain.]: 4 h
[3] = biological target: T2, human Kv1.3 (Homo sapiens, UniProt P22001); assay: Thallium-sensitive fluorescence assay for the voltage gated ion channel Kv1.3 in Jurkat cells; type: cell-based; details: for inhibition at 10 µM: Jurkat, read-out: KV1,3 antagonist activity [% Inhibition at 10 μM]; for IC50: read-out: KV1,3 antagonist activity IC50
T2 construct: expressed in transfected cells; host or cells: Jurkat cells
Description: 2. Assay for the Voltage Gated Ion Channel Kv1.3
Assays were performed and analyized with a FLIPR^TETRA device as specified above.
Compounds for inhibition of ion channel Kv1.3 were assayed in Jurkat cells recombinantly expressing human Kv1.3. For high throughput screening a thallium-sensitive, fluorescence-based assay was used. […] To identify blockers of this ion channel the cells were incubated with different concentrations of compounds 5 min before increasing the potassium and thallium concentration. The fluorescence signals by increasing potassium were then compared in the absence and presence of compounds. Dose response curves were established by adding different concentrations of compounds and analyzing the signal. As reference Kv1.3 blockers margatoxin and quinidine in Cl-free buffer were used as described in the literature.
The results of the Kv1.3 assay are depicted in Table 51 below.

[4] = Metabolic stability assay, CD-1 mouse microsomes; type: in vitro ADME; details: microsomes; for Metabolic Stability 60 min mouse [% remain.]: 1 h
[5] = in vitro; type: in vitro ADME, mouse; details: plasma; for Plasma Stability 240 min mouse [% remain.]: 4 h
[6] = Metabolic stability assay, human microsomes; type: in vitro ADME; details: human, microsomes; for Metabolic Stability 60 min hum [% remain.]: 1 h
[7] = test system: Wnt/Beta-Catenin pathway (LEF-TCF-bla SW480 cells); assay: Wnt/Beta-Catenin (APC-/-) LEF-TCF-bla SW480 inhibitor screen, constitutively activated; type: cell-based; details: Homo sapiens, SW480
Description: (§1) 3. Assays for the Wnt-Pathway
(§2) For determining the activity of the test compounds on the Wnt-pathway each substances war subjected to two distinct assays: The first (Wnt/Beta-Catenin) assay screened for inhibitors of the Wnt-pathway while the second (MAPK/MEK/B-raf) was conducted in order to confirm that the test compounds modulate the β-catenin-dependent, canonical Wnt pathway and are not acting via a possibly competing β-catenin-independent, noncanonical Wnt messaging system.
(§3) Both assays were performed and analyzed with a Tecan Safire^2 fluorescence plate reader.
Wnt/Beta-Catenin (APC−/−)—LEF-TCF-bla SW480—Inhibitor Screen, Constitutively Activated
(§4) LEF-TCF-bla SW480 cells are thawed and resuspended in Assay Media (OPTI-MEM, 0.5% dialyzed FBS, 0.1 mM NEAA, 1 mM Sodium Pyruvate, 100 U/mL/100 μg/mL Pen/Strep) to a concentration of 312,500 cells/mL. 4 μL of a 10× serial dilution of ICG-001 (control inhibitor starting concentration, 10,000 nM) or compounds are added to appropriate wells of a TC-Treated assay plate. 32 μL of cell suspension (10,000 cells) is added to the wells. 4 μL of Assay Media is added to all wells to bring the final assay volume to 40 μL. The plate is incubated for 16-24 hours at 37° C./5% CO2 in a humidified incubator. 8 μL of 1 μM Substrate Loading Solution is added to each well and the plate is incubated for 2 hours at room temperature.

[8] = test system: MAPK/MEK/B-raf pathway (AP1-bla A375 cells); assay: MAPK/MEK/B-raf AP1-bla A375 inhibitor screen, constitutively activated (negative control of the Wnt assay); type: cell-based; details: Homo sapiens, A-375, read-out: AP receptor gene activity IC50
Description: as §1, §2, §3
MAPK/MEK/B-raf—APl-bla A375—Inhibitor Screen, Constitutively Activated
as §4, with “AP1-bla A375” for “LEF-TCF-bla SW480”, “Raf1 Kinase Inhibitor” for “ICG-001”
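Wherever Plasma Stability 240 min mouse [% remain.] is given: sodium citrate stabilized mouse plasma, parent compound quantified by HPLC/MS/MS relative to its peak area at time zero, run in triplicate.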
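Wherever Plasma Stability T½ [min] mouse is given: sodium citrate stabilized mouse plasma, parent compound quantified by HPLC/MS/MS relative to its peak area at time zero, run in triplicate.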

T2 sequence (P22001 whole entry): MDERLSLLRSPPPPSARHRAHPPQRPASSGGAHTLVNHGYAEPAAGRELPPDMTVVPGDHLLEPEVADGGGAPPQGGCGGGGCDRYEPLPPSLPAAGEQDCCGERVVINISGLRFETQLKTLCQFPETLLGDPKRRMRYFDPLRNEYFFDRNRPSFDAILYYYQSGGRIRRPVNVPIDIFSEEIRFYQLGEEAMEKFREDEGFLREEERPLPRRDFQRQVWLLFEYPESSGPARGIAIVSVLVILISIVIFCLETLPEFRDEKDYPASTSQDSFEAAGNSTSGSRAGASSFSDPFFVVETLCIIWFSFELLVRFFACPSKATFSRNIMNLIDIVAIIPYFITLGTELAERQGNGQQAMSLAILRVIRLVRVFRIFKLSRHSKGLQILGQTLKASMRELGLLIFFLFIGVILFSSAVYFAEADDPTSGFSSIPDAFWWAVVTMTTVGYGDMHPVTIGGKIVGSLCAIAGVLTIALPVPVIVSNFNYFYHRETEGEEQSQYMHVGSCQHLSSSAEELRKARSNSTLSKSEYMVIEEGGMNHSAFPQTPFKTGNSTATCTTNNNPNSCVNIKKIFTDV
T1 sequence (P47900 whole entry): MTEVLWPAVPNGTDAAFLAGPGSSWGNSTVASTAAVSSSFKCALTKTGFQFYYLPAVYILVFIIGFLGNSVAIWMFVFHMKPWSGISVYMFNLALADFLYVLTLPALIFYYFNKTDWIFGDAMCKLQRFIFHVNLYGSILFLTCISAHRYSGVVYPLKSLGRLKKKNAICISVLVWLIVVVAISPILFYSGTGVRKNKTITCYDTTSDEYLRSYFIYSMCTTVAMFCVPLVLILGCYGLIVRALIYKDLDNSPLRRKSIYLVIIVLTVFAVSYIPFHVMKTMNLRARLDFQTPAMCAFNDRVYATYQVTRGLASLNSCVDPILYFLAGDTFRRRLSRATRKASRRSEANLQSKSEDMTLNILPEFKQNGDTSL

IC50 [1]: 7.5 µM
inhibition at 10 µM [1]: 45%
Structure (SMILES): CN1CC(=O)N2C[C@H](NC(=O)CCc3ccncc3)C[C@H]2CSc2cccc(c2)C(=O)N(C)[C@H](C(=O)NCc2ccc3ccccc3c2)CCC1=O [Ex. 321, (4S,6R,15S)-11,16-dimethyl-N-(2-naphthylmethyl)-9,12,17-trioxo-6-{[3-(4-pyridinyl)propanoyl]amino}-2-thia-8,11,16-triazatricyclo[16.3.1.0^4,8]docosa-1(22),18,20-triene-15-carboxamide]

inhibition at 10 µM [1]: 19%
Structure (SMILES): CC(=O)N[C@@H]1C[C@H]2CSc3cccc(c3)C(=O)N(C)[C@H](C(=O)NCc3ccc4ccccc4c3)CCC(=O)N(C)CC(=O)N2C1 [Ex. 320, (4S,6R,15S)-6-(acetylamino)-11,16-dimethyl-N-(2-naphthylmethyl)-9,12,17-trioxo-2-thia-8,11,16-triazatricyclo[16.3.1.0^4,8]docosa-1(22),18,20-triene-15-carboxamide]

IC50 ([7]; read-out: TCF/LEF receptor gene activity IC50): 5.5 µM
IC50 [8]: > 50 µM
Structure (SMILES): CN1CC(=O)N2C[C@@H](NC(=O)c3cccc(Cl)c3)C[C@H]2COc2ccc(F)cc2C(=O)N(C)[C@H](C(=O)NCc2cccc3ccccc23)CCC1=O [Ex. 502, (2S,11S,19aS)-2-[(3-chlorobenzoyl)amino]-15-fluoro-7,12-dimethyl-N-(1-naphthylmethyl)-5,8,13-trioxo-2,3,6,7,8,9,10,11,12,13,19,19a-dodecahydro-1H,5H-pyrrolo[2,1-c] [1,4,7,12] benzoxatriazacyclopentadecine-11-carboxamide]
inhibition at 10 µM ([7]; read-out: TCF/LEF receptor gene activity [% inhibition at 10 μM]): 82%

inhibition at 10 µM [1]: 60%
Structure (SMILES): CCCCC(=O)N[C@@H]1C[C@H]2CSc3cccc(c3)C(=O)N(C)[C@H](C(=O)NCc3ccc4ccccc4c3)CCC(=O)N(C)CC(=O)N2C1 [Ex. 322, (4S,6R,15S)-11,16-dimethyl-N-(2-naphthylmethyl)-9,12,17-trioxo-6-(pentanoylamino)-2-thia-8,11,16-triazatricyclo[16.3.1.0^4,8]docosa-1(22),18,20-triene-15-carboxamide]

inhibition at 10 µM [1]: 57%
Structure (SMILES): CN1CC(=O)N2C[C@H](NC(=O)OC(C)(C)C)C[C@H]2CSc2cccc(c2)C(=O)N(C)[C@H](C(=O)NCc2ccc3ccccc3c2)CCC1=O [Ex. 316, tert-butyl N-[(4S,6R,15S)-11,16-dimethyl-15-{[(2-naphthylmethyl)amino]carbonyl}-9,12,17-trioxo-2-thia-8,11,16-triazatricyclo[16.3.1.0^4,8]docosa-1(22),18,20-trien-6-yl]carbamate]

inhibition at 10 µM [3]: 54%
IC50 [3]: 3.5 µM
Structure (SMILES): CN1CC[C@H](NC(=O)Cc2cccc3ccccc23)C(=O)N2C[C@@H](NC(=O)Cc3ccc4ccccc4c3)C[C@H]2COc2cccc(c2)C1=O [Ex. 177, N-[(4S,6S,10S)-13-methyl-6-{[2-(2-naphthyl)acetyl]amino}-9,14-dioxo-2-oxa-8,13-diazatricyclo[13.3.1.0^4,8]nonadeca-1(19),15,17-trien-10-yl]-2-(1-naphthyl)acetamide]

More lines, now with the values behind:

Structure (SMILES): CCCCC(=O)N[C@H]1C[C@H]2COc3cccc(c3)C(=O)N(C)CC[C@H](NC(=O)CCc3ccncc3)C(=O)N2C1 [Ex. 170]
Plasma Stability T½ [min] hum [2]: > 240 min
Plasma Stability 240 min hum [% remain.] [2]: 92 % remain.
KV1,3 antagonist activity [% Inhibition at 10 μM] ([3]; 10 μM): 10%
Metabolic Stability T½ [min] mouse ([4]; mouse): > 60 min
Metabolic Stability 60 min mouse [% remain.] ([4]; mouse): 86 % remain.
Plasma Stability T½ [min] mouse ([5]; mouse): > 240 min
Plasma Stability 240 min mouse [% remain.] ([5]; mouse): 100 % remain.
Metabolic Stability T½ [min] hum [6]: > 60 min
Metabolic Stability 60 min hum [% remain.] [6]: 60 % remain.

Structure (SMILES): CCCCC(=O)N[C@H]1C[C@H]2COc3cccc(c3)C(=O)N(C)CC[C@H](NC(=O)c3ccc4ccccc4c3)C(=O)N2C1 [Ex. 171, N-[(4S,6S,10S)-13-methyl-9,14-dioxo-6-(pentanoylamino)-2-oxa-8,13-diazatricyclo[13.3.1.0^4,8]nonadeca-1(19),15,17-trien-10-yl]-2-naphthamide]
inhibition at 10 µM [3]: 12%

Structure (SMILES): CN1CCC(NC(=O)OCc2ccccc2)C(=O)N2CC(NC(=O)Cc3ccc4ccccc4c3)CC2COc2cccc(c2)C1=O [Ex. 168, benzyl N-[(4S,6S,10S)-13-methy1-6-{[2-(2-naphthyl)acetyl]amino}-9,14-dioxo-2-oxa-8,13-diazatricyclo [13.3.1.0^4,8]nonadeca-1(19),15,17-trien-10-yl]carbamate]
Plasma Stability T½ [min] hum ([2]; 10 µM): > 240 min
Plasma Stability 240 min hum [% remain.] ([2]; 10 µM): 85 % remain.
inhibition at 10 µM [3]: 44%
IC50 [3]: 1.69 µM
half-life at 10 µM ([4]; both sexes, CD-1, mouse): 0.433 h
Metabolic Stability 60 min mouse [% remain.] ([4]; both, CD-1, mouse, 10 µM): 21 % remain.
Plasma Stability T½ [min] mouse ([5]; both, CD-1, mouse, 10 µM): > 240 min
Plasma Stability 240 min mouse [% remain.] ([5]; both, CD-1, mouse, 10 µM): 99 % remain.
half-life at 10 µM ([6]; both sexes): 0.417 h
Metabolic Stability 60 min hum [% remain.] ([6]; both, 10 µM): 17 % remain.

Structure (SMILES): CCCCC(=O)N[C@H]1C[C@H]2COc3cccc(c3)C(=O)N(C)CC[C@H](NC(=O)OCc3ccccc3)C(=O)N2C1 [Ex. 166, benzyl N-[(4S,6S,10S)-13-methyl-9,14-dioxo-6-(pentanoylamino)-2-oxa-8,13-diazatricyclo[13.3.1.0^4,8]nonadeca-1(19),15,17-trien-10-yl]carbamate]
inhibition at 10 µM [3]: 20%
